The record followed here is patent US20260041095A1, “A PRESERVATION METHOD” (AnalytiCon Discovery - Zweigniederlassung der BRAIN Biotech …, priority 2022, published 2026).

Holding throughout (assay type): cell-based
One test deals with Asaia siamensis SUN03. Put plainly: Antimicrobial activity (MIC), Asaia siamensis SUN03. The note with it: potato dextrose broth pH 3.8, visual evaluation; for MIC: read-out: Minimal Inhibitory Concentration (MIC).
For the next test, the system named is Brettanomyces sp SUN08. Put plainly: Antimicrobial activity (MIC), Brettanomyces sp SUN08. To be noted: potato dextrose broth pH 3.8, visual evaluation; for MIC: read-out: Minimal Inhibitory Concentration (MIC).
In a further test the test system is Byssochlamys nivea SUN10. Put plainly: Antimicrobial activity (MIC), Byssochlamys nivea SUN10. To be noted: potato dextrose broth pH 3.8, visual evaluation; for MIC: Paecilomyces niveus, read-out: Minimal Inhibitory Concentration (MIC).
Test [1] concerns Candida parapsilosis SUN05. Kind of test: Antimicrobial activity (MIC), Candida parapsilosis SUN05. To be noted: potato dextrose broth pH 3.8, visual evaluation; for MIC: Lodderomyces parapsilosis, read-out: Minimal Inhibitory Concentration (MIC).
The test system of test [2] is Neosartorya fischeri SUN09. Kind of test: Antimicrobial activity (MIC), Neosartorya fischeri SUN09. The note with it: potato dextrose broth pH 3.8, visual evaluation; for MIC: Aspergillus fischeri, read-out: Minimal Inhibitory Concentration (MIC).
A further test relates to Penicillium paneum SUN04. Put plainly: Antimicrobial activity (MIC), Penicillium paneum SUN04. To be noted: potato dextrose broth pH 3.8, visual evaluation; for MIC: read-out: Minimal Inhibitory Concentration (MIC).
In test [3] the test system is Saccharomyces cerevisiae SUN01. Put plainly: Antimicrobial activity (MIC), Saccharomyces cerevisiae SUN01. The note with it: potato dextrose broth pH 3.8, visual evaluation; for MIC: read-out: Minimal Inhibitory Concentration (MIC).
Test [4] relates to Saccharomyces cerevisiae SUN06. Put plainly: Antimicrobial activity (MIC), Saccharomyces cerevisiae SUN06. To be noted: potato dextrose broth pH 3.8, visual evaluation; for MIC: read-out: Minimal Inhibitory Concentration (MIC).
For test [5], the system named is Zygosaccharomyces bailli SUN02. Put plainly: Antimicrobial activity (MIC), Zygosaccharomyces bailli SUN02. To be noted: potato dextrose broth pH 3.8, visual evaluation; for MIC: read-out: Minimal Inhibitory Concentration (MIC).
In test [6] the test system is Zygosaccharomyces bailli SUN07. Kind of test: Antimicrobial activity (MIC), Zygosaccharomyces bailli SUN07. The note with it: potato dextrose broth pH 3.8, visual evaluation; for MIC: read-out: Minimal Inhibitory Concentration (MIC).
Test [7] relates to Alicyclobacillus acidoterrestris DSM 2498. Kind of test: Antimicrobial activity (MIC), Alicyclobacillus acidoterrestris DSM 2498. The note with it: DSM2498, potato dextrose broth pH 3.8, visual evaluation, read-out: Minimal Inhibitory Concentration (MIC).
Test [8] relates to Bacillus subtilis ATCC 6633. Put plainly: Antimicrobial activity (MIC), Bacillus subtilis ATCC 6633. The note with it: ATCC6633, potato dextrose broth pH 3.8, visual evaluation, read-out: Minimal Inhibitory Concentration (MIC).
Test [9] deals with Leuconostoc lactis DSM 20202. Kind of test: Antimicrobial activity (MIC), Leuconostoc lactis DSM 20202. The note with it: DSM20202, potato dextrose broth pH 3.8, visual evaluation, read-out: Minimal Inhibitory Concentration (MIC).

≈ marks a conversion by molar mass, not a printed value. Where only a bound is given, the exact number is not on record here.

Regarding `O=C(O)OC[C@H]1O[C@@H](OCC(O)CCCCCCCCCCCCC(O)C(=O)O)[C@H](O)[C@@H](O)[C@@H]1O[C@@H]1O[C@H](CO)[C@@H](O)[C@H](O)[C@H]1O` (stereo partly drawn) [NP-018243], in the test with Asaia siamensis SUN03, the “Minimal Inhibitory Concentration (MIC)” value is “inact”. The MIC is 250 mg/L (≈ 372 µM) in the test on Brettanomyces sp SUN08; 250 mg/L (≈ 372 µM) in the test on Byssochlamys nivea SUN10; 500 mg/L (≈ 743 µM) in test [1]; at most 125 mg/L in test [2]; at most 125 mg/L in the test with Penicillium paneum SUN04; 250 mg/L (≈ 372 µM) in test [3]. Also, the MIC in test [4], in test [5] and in test [6] was 250 mg/L (≈ 372 µM) in each case.

Consider `CCCCCC(O)CC(=O)O[C@H]1[C@H](O[C@H]2[C@H](O)[C@@H](O)[C@H](OCC(O)CCCCCCCCCCCCCC(=O)O)O[C@@H]2COC(C)=O)O[C@H](CO)[C@@H](O)[C@@H]1O` (stereo partly drawn) [NP-018752], for which the “Minimal Inhibitory Concentration (MIC)” value (in the test on Asaia siamensis SUN03; with Brettanomyces sp SUN08; in test [1]; in test [2]; in the test on Penicillium paneum SUN04; in test [3]) was “inact” throughout. In addition, the MIC in [7] was 4 mg/L (≈ 5.02 µM); in the test with Byssochlamys nivea SUN10, 500 mg/L (≈ 627 µM); in test [4], 500 mg/L (≈ 627 µM); in [5], 500 mg/L (≈ 627 µM); in test [6], 500 mg/L (≈ 627 µM).

`CCCCCC(O)CC(=O)O[C@@H]1[C@@H](O)[C@H](O[C@H]2[C@H](O)[C@@H](O)[C@H](OCC(O)CCCCCCCCCCCCC(O)C(=O)O)O[C@@H]2COC(C)=O)O[C@H](CO)[C@H]1O` (stereo partly drawn) [NP-018218]: the “Minimal Inhibitory Concentration (MIC)” value (in the test with Asaia siamensis SUN03; in the test on Brettanomyces sp SUN08; in the test on Byssochlamys nivea SUN10; in [1]; in test [2]; in the test on Penicillium paneum SUN04) was “inact” throughout. Besides, the “Minimal Inhibitory Concentration (MIC)” value in [3], in [5] and in test [6] was “inact” in each case. Also, the MIC in [4] is 500 mg/L (≈ 615 µM).

As to `CCCC(O)CC(=O)OC[C@H]1O[C@@H](O[C@H]2[C@H](O)[C@@H](O)[C@H](OCC(O)CCCCCCCCCCCCC(O)C(=O)O)O[C@@H]2COC(C)=O)[C@H](O)[C@@H](O)[C@@H]1O` (stereo partly drawn) [NP-018459], the “Minimal Inhibitory Concentration (MIC)” value (in the test with Asaia siamensis SUN03; with Brettanomyces sp SUN08; with Byssochlamys nivea SUN10; in test [1]; in [3]; in test [4]) was “inact” throughout. Also, in [5], the “Minimal Inhibitory Concentration (MIC)” value is “inact”. For the same compound, the MIC (in test [2]; with Penicillium paneum SUN04; in [6]) was 500 mg/L (≈ 637 µM) in each case.

With `O=C(O)OC[C@H]1O[C@@H](OCC(O)CCCCCCCCCCC/C=C(\O)C(=O)O)[C@H](O)[C@@H](O)[C@@H]1O[C@@H]1O[C@H](CO)[C@@H](O)[C@H](O)[C@H]1OC(=O)CC(O)CCO` (stereo partly drawn) [NP-018756], the MIC in the test on Asaia siamensis SUN03 is over 500 mg/L; in test [7], 16 mg/L (≈ 20.3 µM); in test [8], 600 mg/L (≈ 763 µM); in the test on Brettanomyces sp SUN08, 250 mg/L (≈ 318 µM); with Byssochlamys nivea SUN10, at most 125 mg/L; in [1], 500 mg/L (≈ 635 µM). Moreover, the MIC in test [9] was 600 mg/L (≈ 763 µM); in test [2], at most 125 mg/L; in the test on Penicillium paneum SUN04, 250 mg/L (≈ 318 µM); in test [3] it was 250 mg/L (≈ 318 µM); in test [4], 250 mg/L (≈ 318 µM); in test [5] it was 250 mg/L (≈ 318 µM). Besides, in test [6], the MIC was 250 mg/L (≈ 318 µM).

For the compound `CCCCCCCC(=O)O[C@H]1[C@H](O[C@H]2[C@H](O)[C@@H](O)[C@H](OCC(O)CCCCCCCCCCCCC(O)C(=O)O)O[C@@H]2COC(C)=O)O[C@H](CO)[C@@H](O)[C@@H]1O` (stereo partly drawn) [NP-018753], the MIC with Asaia siamensis SUN03 was over 500 mg/L; in the test with Brettanomyces sp SUN08, 500 mg/L (≈ 627 µM); with Byssochlamys nivea SUN10, at most 31.2 mg/L; in [1], at most 31.2 mg/L; in [2], at most 31.2 mg/L; in the test on Penicillium paneum SUN04, 500 mg/L (≈ 627 µM). Further, the MIC in [3], in test [4], in test [5] and in [6] was at most 31.2 mg/L in each case.

As to `O=C(O)CC(O)CCCCCCCCCCCC(O)CO[C@@H]1O[C@H](COC(=O)O)[C@@H](O[C@@H]2O[C@H](CO)[C@@H](O)[C@H](O)[C@H]2O)[C@H](O)[C@H]1O` (stereo partly drawn) [NP-018428], the “Minimal Inhibitory Concentration (MIC)” value (in the test on Asaia siamensis SUN03; in the test with Brettanomyces sp SUN08; in the test with Byssochlamys nivea SUN10; in test [1]; with Penicillium paneum SUN04; in test [3]) was “inact” each time. Besides, the “Minimal Inhibitory Concentration (MIC)” value in [4], in [5] and in test [6] was “inact” each time. Further, in test [2], the MIC was 500 mg/L (≈ 743 µM).

`O=C(O)OC[C@H]1O[C@@H](OCC(O)CCCCCCCCCCCCC(O)C(=O)O)[C@H](O)[C@@H](O)[C@@H]1O[C@@H]1O[C@H](CO)[C@@H](O)[C@H](OC(=O)CC(O)CCO)[C@H]1O` (stereo partly drawn) [NP-018249]: the “Minimal Inhibitory Concentration (MIC)” value (with Asaia siamensis SUN03; in the test on Brettanomyces sp SUN08; in the test with Byssochlamys nivea SUN10; in test [1]; in test [2]; in the test with Penicillium paneum SUN04) was “inact” throughout. Also, in test [4], the “Minimal Inhibitory Concentration (MIC)” value was “inact”. The MIC in test [3], in [5] and in test [6] was 500 mg/L (≈ 634 µM) throughout.
